Experimental findings from patent publication US12540143B2, “Methods and compositions for targeted protein degradation” (Ranok Therapeutics (Hangzhou) Co. Ltd., priority 2019, dated 2026) are described below.

Where a name gives a salt, the structure may show the parent alone.

The test system of the first series is MV4-11 cells. Put plainly: MV4-11 Cytotoxicity Assay. The series is classed as cell-based, human. The settings on record: 72 hr, CCK-8; read-out: MV4-11 cytotoxicity.
`CCc1cc(-c2nnc(C(N)=O)n2-c2ccc(CN3CCN(CC4CCN(C(=O)C[C@@H]5N=C(c6ccc(Cl)cc6)c6c(sc(C)c6C)-n6c(C)nnc65)CC4)CC3)cc2)c(O)cc1O` [Compound 120, (S)-4-(4-((4-((1-(2-(4-(4-chlorophenyl)-2,3,9-trimethyl-6H-thieno[3,2-f][1,2,4]triazolo[4,3-a][1,4]diazepin-6-yl)acetyl)piperidin-4-yl)methyl)piperazin-1-yl)methyl)phenyl)-5-(5-ethyl-2,4-dihydroxyphenyl)-4H-1,2,4-triazole-3-carboxamide hydrochloride]: the IC50 is less than 100 nM.
For `CCc1cc(-c2nnc(C(N)=O)n2-c2ccc(CN3CCN(CC4CCN(C(=O)C[C@@H]5N=C(c6ccc(Cl)cc6)c6c(sc(C)c6C)-n6c(C)nnc65)CC4)CC3)cc2)c(O)cc1O` [Compound 121, (S)-4-(4-((4-((1-(2-(4-(4-chlorophenyl)-2,3,9-trimethyl-6H-thieno[3,2-f][1,2,4]triazolo[4,3-a][1,4]diazepin-6-yl)acetyl)piperidin-4-yl)methyl)piperazin-1-yl)methyl)phenyl)-5-(5-ethyl-2,4-dihydroxyphenyl)-4H-1,2,4-triazole-3-carboxamide hydrochloride], the IC50 is less than 100 nM.

Staying with this series, now noted: Homo sapiens, MV4-11, 72 h, read-out: MV4-11 cytotoxicity.
Turning to `CCc1cc(-c2nnc(C(N)=O)n2-c2ccc(CN3CCN(CC4CCN(C(=O)C[C@@H]5N=C(c6ccc(Cl)cc6)c6c(sc(C)c6C)-n6c(C)nnc65)CC4)CC3)cc2)c(O)cc1O` [Compound 106, (S)-4-(4-((4-((1-(2-(4-(4-chlorophenyl)-2,3,9-trimethyl-6H-thieno[3,2-f][1,2,4]triazolo[4,3-a][1,4]diazepin-6-yl)acetyl)piperidin-4-yl)methyl)piperazin-1-yl)methyl)phenyl)-5-(5-ethyl-2,4-dihydroxyphenyl)-4H-1,2,4-triazole-3-carboxamide, trifluoroacetic acid], the IC50 is less than 100 nM.

Staying with this series, now noted: Homo sapiens, MV4-11; 72 hr, CCK-8; read-out: MV4-11 cytotoxicity.
Turning to `Cc1sc2c(c1C)C(c1ccc(Cl)cc1)=N[C@@H](CC(=O)N1CCC(CN3CCN(Cc4ccc(-n5c(C(=O)NCCN6CCCCC6)nnc5-c5cc(C(C)C)c(O)cc5O)cc4)CC3)CC1)c1nnc(C)n1-2` [Compound 107, (S)-4-(4-((4-((1-(2-(4-(4-chlorophenyl)-2,3,9-trimethyl-6H-thieno[3,2-f][1,2,4]triazolo[4,3-a][1,4]diazepin-6-yl)acetyl)piperidin-4-yl)methyl)piperazin-1-yl)methyl)phenyl)-5-(2,4-dihydroxy-5-isopropylphenyl)-N-(2-(piperidin-1-yl)ethyl)-4H-1,2,4-triazole-3-carboxamide, trifluoroacetic acid], the IC50 was less than 100 nM.
The same measure, in the same setting: the figure for `Cc1sc2c(c1C)C(c1ccc(Cl)cc1)=N[C@@H](CC(=O)N1CCC(CN3CCN(Cc4ccc(-n5c(C(=O)NC(C)C)nnc5-c5cc(C(C)C)c(O)cc5O)cc4)CC3)CC1)c1nnc(C)n1-2` [Compound 108, (S)-4-(4-((4-((1-(2-(4-(4-chlorophenyl)-2,3,9-trimethyl-6H-thieno[3,2-f][1,2,4]triazolo[4,3-a][1,4]diazepin-6-yl)acetyl)piperidin-4-yl)methyl)piperazin-1-yl)methyl)phenyl)-5-(2,4-dihydroxy-5-isopropylphenyl)-N-isopropyl-4H-1,2,4-triazole-3-carboxamide, trifluoroacetic acid] is 100 to 1000 nM; for `Cc1sc2c(c1C)C(c1ccc(Cl)cc1)=N[C@@H](CC(=O)N1CCC(CN3CCN(Cc4ccc(-n5c(C(N)=O)nnc5-c5cc(C(C)C)c(O)cc5O)cc4)CC3)CC1)c1nnc(C)n1-2` [Compound 109, (S)-4-(4-((4-((1-(2-(4-(4-chlorophenyl)-2,3,9-trimethyl-6H-thieno[3,2-f][1,2,4]triazolo[4,3-a][1,4]diazepin-6-yl)acetyl)piperidin-4-yl)methyl)piperazin-1-yl)methyl)phenyl)-5-(2,4-dihydroxy-5-isopropylphenyl)-4H-1,2,4-triazole-3-carboxamide, trifluoroacetic acid] it is less than 100 nM; for `Cc1sc2c(c1C)C(c1ccc(Cl)cc1)=N[C@@H](CC(=O)N1CCC(CN3CCN(Cc4ccc(-n5c(C(=O)NCCN6CCCCC6)nnc5-c5ccc(O)cc5O)cc4)CC3)CC1)c1nnc(C)n1-2` [Compound 110, (S)-4-(4-((4-((1-(2-(4-(4-chlorophenyl)-2,3,9-trimethyl-6H-thieno[3,2-f][1,2,4]triazolo[4,3-a][1,4]diazepin-6-yl)acetyl)piperidin-4-yl)methyl)piperazin-1-yl)methyl)phenyl)-5-(2,4-dihydroxyphenyl)-N-(2-(piperidin-1-yl)ethyl)-4H-1,2,4-triazole-3-carboxamide, trifluoroacetic acid] it is 100 to 1000 nM.
The same measure, in the same setting: the figure for `CCN(CC)CCNC(=O)c1nnc(-c2ccc(O)cc2O)n1-c1ccc(CN2CCN(CC3CCN(C(=O)C[C@@H]4N=C(c5ccc(Cl)cc5)c5c(sc(C)c5C)-n5c(C)nnc54)CC3)CC2)cc1` [Compound 111, (S)-4-(4-((4-((1-(2-(4-(4-chlorophenyl)-2,3,9-trimethyl-6H-thieno[3,2-f][1,2,4]triazolo[4,3-a][1,4]diazepin-6-yl)acetyl)piperidin-4-yl)methyl)piperazin-1-yl)methyl)phenyl)-N-(2-(diethylamino)ethyl)-5-(2,4-dihydroxyphenyl)-4H-1,2,4-triazole-3-carboxamide, trifluoroacetic acid] is less than 100 nM.
Still for that read-out and setting: the figure for `Cc1sc2c(c1C)C(c1ccc(Cl)cc1)=N[C@@H](CC(=O)N1CCC(CN3CCN(Cc4ccc(-n5c(C(N)=O)nnc5-c5ccc(O)cc5O)cc4)CC3)CC1)c1nnc(C)n1-2` [Compound 112, (S)-4-(4-((4-((1-(2-(4-(4-chlorophenyl)-2,3,9-trimethyl-6H-thieno[3,2-f][1,2,4]triazolo[4,3-a][1,4]diazepin-6-yl)acetyl)piperidin-4-yl)methyl)piperazin-1-yl)methyl)phenyl)-5-(2,4-dihydroxyphenyl)-4H-1,2,4-triazole-3-carboxamide, trifluoroacetic acid] is less than 100 nM; for `CCc1cc(-c2nnc(C(=O)NCCN3CCCCC3)n2-c2ccc(CN3CCN(CC4CCN(C(=O)C[C@@H]5N=C(c6ccc(Cl)cc6)c6c(sc(C)c6C)-n6c(C)nnc65)CC4)CC3)cc2)c(O)cc1O` [Compound 117, (S)-4-(4-((4-((1-(2-(4-(4-chlorophenyl)-2,3,9-trimethyl-6H-thieno[3,2-f][1,2,4]triazolo[4,3-a][1,4]diazepin-6-yl)acetyl)piperidin-4-yl)methyl)piperazin-1-yl)methyl)phenyl)-5-(5-ethyl-2,4-dihydroxyphenyl)-N-(2-(piperidin-1-yl)ethyl)-4H-1,2,4-triazole-3-carboxamide, trifluoroacetic acid] it is less than 100 nM.
`CCN(CC)CCNC(=O)c1nnc(-c2cc(C(C)C)c(O)cc2O)n1-c1ccc(CN2CCN(CC3CCN(C(=O)C[C@@H]4N=C(c5ccc(Cl)cc5)c5c(sc(C)c5C)-n5c(C)nnc54)CC3)CC2)cc1` [Compound 118, (S)-4-(4-((4-((1-(2-(4-(4-chlorophenyl)-2,3,9-trimethyl-6H-thieno[3,2-f][1,2,4]triazolo[4,3-a][1,4]diazepin-6-yl)acetyl)piperidin-4-yl)methyl)piperazin-1-yl)methyl)phenyl)-N-(2-(diethylamino)ethyl)-5-(2,4-dihydroxy-5-isopropylphenyl)-4H-1,2,4-triazole-3-carboxamide, trifluoroacetic acid]: the IC50 is less than 100 nM.
`Cc1sc2c(c1C)C(c1ccc(Cl)cc1)=N[C@@H](CC(=O)N1CCC(CN3CCN(Cc4ccc(-n5c(C(=O)NC(C)C)nnc5-c5ccc(O)cc5O)cc4)CC3)CC1)c1nnc(C)n1-2` [Compound 119, (S)-4-(4-((4-((1-(2-(4-(4-chlorophenyl)-2,3,9-trimethyl-6H-thieno[3,2-f][1,2,4]triazolo[4,3-a][1,4]diazepin-6-yl)acetyl)piperidin-4-yl)methyl)piperazin-1-yl)methyl)phenyl)-5-(2,4-dihydroxyphenyl)-N-isopropyl-4H-1,2,4-triazole-3-carboxamide, trifluoroacetic acid]: the IC50 was less than 100 nM.
For `CCCc1cc(-c2nnc(C(=O)NCCN3CCCCC3)n2-c2ccc(CN3CCN(CC4CCN(C(=O)C[C@@H]5N=C(c6ccc(Cl)cc6)c6c(sc(C)c6C)-n6c(C)nnc65)CC4)CC3)cc2)c(O)cc1O` [Compound 123, (S)-4-(4-((4-((1-(2-(4-(4-chlorophenyl)-2,3,9-trimethyl-6H-thieno[3,2-f][1,2,4]triazolo[4,3-a][1,4]diazepin-6-yl)acetyl)piperidin-4-yl)methyl)piperazin-1-yl)methyl)phenyl)-5-(2,4-dihydroxy-5-propylphenyl)-N-(2-(piperidin-1-yl)ethyl)-4H-1,2,4-triazole-3-carboxamide, trifluoroacetic acid], the IC50 was less than 100 nM.
On the same count and under the same terms, the figure for `Cc1cc(-c2nnc(C(=O)NCCN3CCCCC3)n2-c2ccc(CN3CCN(CC4CCN(C(=O)C[C@@H]5N=C(c6ccc(Cl)cc6)c6c(sc(C)c6C)-n6c(C)nnc65)CC4)CC3)cc2)c(O)cc1O` [Compound 124, (S)-4-(4-((4-((1-(2-(4-(4-chlorophenyl)-2,3,9-trimethyl-6H-thieno[3,2-f][1,2,4]triazolo[4,3-a][1,4]diazepin-6-yl)acetyl)piperidin-4-yl)methyl)piperazin-1-yl)methyl)phenyl)-5-(2,4-dihydroxy-5-methylphenyl)-N-(2-(piperidin-1-yl)ethyl)-4H-1,2,4-triazole-3-carboxamide, trifluoroacetic acid] is less than 100 nM; for `CCNC(=O)c1noc(-c2cc(C(C)C)c(O)cc2O)c1-c1ccc(CN2CCN(CC3CCN(C(=O)C[C@@H]4N=C(c5ccc(Cl)cc5)c5c(sc(C)c5C)-n5c(C)nnc54)CC3)CC2)cc1` [Compound 126, (S)-4-(4-((4-((1-(2-(4-(4-chlorophenyl)-2,3,9-trimethyl-6H-thieno[3,2-f][1,2,4]triazolo[4,3-a][1,4]diazepin-6-yl)acetyl)piperidin-4-yl)methyl)piperazin-1-yl)methyl)phenyl)-5-(2,4-dihydroxy-5-isopropylphenyl)-N-ethylisoxazole-3-carboxamide hydrochloride] it is less than 100 nM.
